US20230276804A1, “A PESTICIDALLY ACTIVE MIXTURE COMPRISING PYRAZOLOPYRIDINE ANTHRANILAMIDE COMPOUND, OXIDES OR SALTS THEREOF” (priority 2020, published 2023)
Where “and” joins values, the source holds several entries; their conditions need not be identical. Identical values can stand only once.

Tests used:
Type in all cases: in vivo
Erysiphe cichoracearum = assay: Preventive glasshouse test against Erysiphe cichoracearum in cucumber (Example K); settings: single compound
Procedure: The single compounds or the respective compound combinations were dissolved in 2% dimethyl sulfoxide/acetone and then mixed with water containing emulsifier to a calibrated spray volume of 50 mL. The test solutions were poured into spray bottles for further applications.
(§1) To test the preventive activity of compounds, healthy young cucumber plants, raised in the greenhouse, were sprayed with the active compound preparation at the stated application rates inside the spray cabinets using hollow cone nozzles. One day after treatment, the plants were inoculated with a conidial suspension containing 2×10^5 Erysiphe cichoracearum inoculum. The inoculated plants were then kept in a greenhouse chamber at a temperature of 22-24° C. and 50-60% relative humidity for disease expression.
A visual assessment of the performance of the compounds and the respective compound combinations was carried out by rating the disease severity (0-100% scale) on treated plants 3, 7, 10 and 15 days after application. Efficacy (% control) of the single compounds or compound combinations was calculated by comparing the disease rating in the treatment with the one of the untreated control. The compounds were also assessed for their plant compatibility by recording symptoms like necrosis, chlorosis and stunting. The results have been described for the compound of formula (I-III) in Table K.

Plutella xylostella [1] = assay: Leaf dip method (cabbage leaves) with Bacillus thuringiensis against Plutella xylostella (Example F); settings: single, 0.1 ppm, 72 h
Procedure: The leaf dip method was used, wherein the required quantity of the compounds were weighed and dissolved in a test solution prepared in tubes. The tubes were put on a vortex at 2000 rpm for 90 min for proper mixing and then, for the single compounds, diluted with a 0.01% Triton-X solution, for the combinations, diluted with a 0.01% Triton-X solution containing formulated Bt, to get the desired test concentration. Cabbage leaves were dipped in the solution for 10 seconds, shade dried for 20 min and then transferred to single cells of bioassay trays. A single second instar larva was released into each cell and the tray was covered with a lid. The bio-assay trays were kept under laboratory conditions at a temperature of 25° C. and relative humidity of 70%. Observations on dead, moribund and live larvae were recorded 72 h after the release. Percent mortality was calculated by combining dead and moribund larvae and comparing the results to the one of the untreated control. The results have been described for compound of formula (I-III) in Table F.

Plutella xylostella [2] = assay: Leaf dip method (cabbage leaves) against Plutella xylostella (Example C); settings: single compound, 72 h
Procedure: The leaf dip method was used, wherein the required quantity of the compound or respective compound combinations were weighed and dissolved in a test solution prepared in tubes. The tubes were put on a vortex at 2000 rpm for 90 min for proper mixing and then the test solutions were diluted with 0.01% Triton-X to the desired test concentration. Cabbage leaves were dipped into the solution for 10 seconds, shade dried for 20 min and then transferred to single cells of bioassay trays. A single second instar larva was released into each cell and the tray was covered with a lid. The bio-assay trays were kept under laboratory conditions at a temperature of 25° C. and relative humidity of 70%. Observations on dead, moribund and live larvae were recorded 72 h after the release. Percent mortality was calculated by combining dead and moribund larvae and comparing the result with the one of the untreated control. The results are shown for compound of formula (I-III) in Table C.

Alternaria solani = assay: Preventive glasshouse test against Alternaria solani in tomato (Example G); settings: single compound
Procedure: (§2) The single compounds or respective compound combinations were dissolved in 2% dimethyl sulfoxide/acetone and then mixed with water containing emulsifier to a calibrated spray volume of 50 mL. The test solutions were poured into spray bottles for further applications.
as §1, with “activity,” for “activity of compounds,”, “tomato” for “cucumber”, “spore” for “conidial”, “0.24×10^6 Alternaria solani inoculum and 2% Malt.” for “2×10^5 Erysiphe cichoracearum inoculum.”, “90-95%” for “50-60%”
(§3) A visual assessment of the performance of the single compounds or compound combinations was carried out by rating the disease severity (0-100% scale) on treated plants 3, 7, 10 and 15 days after application. Efficacy (% control) of the single compounds and mixtures was calculated by comparing the disease rating in the treatment with the one of the untreated control. The compounds were also assessed for their plant compatibility by recording symptoms like necrosis, chlorosis and stunting. The results have been described for the compound of formula (I-III) in Table G.

Pyricularia oryzae = settings: single compound, 100 ppm, preventive, rice
Phakopsora pachyrhizi = assay: Preventive glasshouse test against Phakopsora pachyrhizi in soybean (Example H); settings: single compound
Procedure: The single compounds or the respective compound combinations were dissolved in 2% dimethyl sulfoxide/acetone and then mixed with water containing an emulsifier to a calibrated spray volume of 50 ml. The test solutions were poured into spray bottles for further applications.
as §1, with “Soybean” for “cucumber”, “a” for “a conidial”, “Phakopsora pachyrhizi conidia.” for “Erysiphe cichoracearum inoculum.”, “80-90%” for “50-60%”
A visual assessment of the performance of the single compounds and respective compound combinations was carried out by rating the disease severity (0-100% scale) on treated plants 3, 7, 10 and 15 days after application. Efficacy (% control) of the compounds was calculated by comparing the disease rating in the treatment with the one of the untreated control. The compounds were also assessed for their plant compatibility by recording symptoms like necrosis, chlorosis and stunting. The results have been described for the compound of formula (I-III) in Table H.

Septoria nodorum = assay: Preventive glasshouse test against Parastagonospora nodorum/Septoria nodorum/Stagnospora nodorum in wheat (Example J); settings: single compound
Procedure: as §2
To test the preventive activity of compounds, healthy young wheat plants, raised in the greenhouse, were sprayed with the active compound preparation at the stated application rates inside the spray cabinets using hollow cone nozzles. One day after treatment, the plants were inoculated with a spore suspension containing 2.8×10^6 Stagnospora nodorum inoculum.
The inoculated plants were then kept in a greenhouse chamber at 22-25° C. temperature and 90-100% relative humidity for disease expression.
as §3, with “J.” for “G.”

Substance: 6-(3-bromo-1-(3-chloropyridin-2-yl)-1H-pyrazole-5-carboxamido)-N-isopropyl-5-methylpyrazolo[1,5-a]pyridine-7-carboxamide [Compound (I-III)]
- Observed Efficacy (%) (Erysiphe cichoracearum; Conc. 100 ppm): 17%
- Observed Efficacy (%) (Erysiphe cichoracearum; Conc. 500 ppm): 17% and 19% and 28%
- Observed Efficacy (%) (Plutella xylostella [1]): 12.5%
- Observed Efficacy (%) (Plutella xylostella [2]; 0.05 ppm): 12.5%
- Observed Efficacy (%) (Plutella xylostella [2]; 0.1 ppm): 12.5%
- Observed Efficacy (%) (Plutella xylostella [2]; 0.5 ppm): 25%
- Observed Efficacy (%) (Alternaria solani; 100 ppm): 30%
- Observed Efficacy (%) (Alternaria solani; 500 ppm): 32%
- Observed Efficacy (%) (Pyricularia oryzae): 15%
- Observed Efficacy (%) (Phakopsora pachyrhizi; 100 ppm): 25%
- Observed Efficacy (%) (Phakopsora pachyrhizi; 500 ppm): 56%
- Observed Efficacy (%) (Septoria nodorum; 100 ppm): 24%
- Observed Efficacy (%) (Septoria nodorum; 500 ppm): 32%
